The experiment deals with T1, recombinant human Flag-tagged PARP7 (amino acids 456-657) (Homo sapiens, UniProt Q7Z3E1).
T1 construct: recombinant human Flag-tagged PARP7 (amino acids 456-657)
T1 sequence (Q7Z3E1 456-657): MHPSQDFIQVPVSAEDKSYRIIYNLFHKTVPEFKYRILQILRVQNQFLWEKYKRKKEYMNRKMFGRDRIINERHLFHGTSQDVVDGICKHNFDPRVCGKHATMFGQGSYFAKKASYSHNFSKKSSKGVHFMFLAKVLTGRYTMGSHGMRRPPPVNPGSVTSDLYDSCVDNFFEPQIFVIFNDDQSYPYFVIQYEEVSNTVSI
In words: PARP7 biochemical DELFIA assay (auto-MARylation). As to conditions: DELFIA readout, IC50 class. A digest of the protocol:
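Readout is DELFIA time-resolved Eu fluorescence (Ex337 nm, Em620 nm) of biotin-ADP-ribose on immobilised Flag-tagged PARP7 456-657. Enzyme (12.5-37.5 nM as added) sat 30 min with compound before biotin-NAD+ (15 μM solution, pH 7.5 HEPES buffer) started 2-3 h room-temperature self-modification, stopped with excess NAD+.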

For orientation: IC50 means the concentration at which inhibition is half-maximal.

Where only a bound is given, the exact number is not on record here.

In the case of `O=C1NCc2c(CCOCCC(=O)N3CCN(c4ncc(C(F)(F)F)cn4)CC3)cccc21` [Compound 54], the IC50 was in the range of 100 to 1000 nM.

Regarding `CN1CCN(CCOCCC(=O)N2CCN(c3ncc(C(F)(F)F)cn3)CC2)c2cn[nH]c(=O)c21` [Compound 55], the IC50 was at most 100 nM. In the case of `O=C1NCCc2c1ccn2CCOCCC(=O)N1CCN(c2ncc(C(F)(F)F)cn2)CC1` [Compound 56], the IC50 is 1000 to 10000 nM. Under `N#Cc1ccc(N2CCN(C(=O)c3cccc(Cc4cc(Cl)cc5c(=O)[nH]ncc45)c3)CC2)nc1` [Compound 57] stands at most 100 nM. Under `O=C(NCCOc1cccc2c(=O)[nH]ncc12)N1CCN(c2ncc(C(F)(F)F)cn2)CC1` [Compound 58] stands 100 to 1000 nM. In the case of `CCc1cc2c(=O)[nH]ncc2n1CCOCCC(=O)N1CCN(c2ncc(C(F)(F)F)cn2)CC1` [Compound 59] it was 100 to 1000 nM; in that of `O=C(CCOCCn1c(C(F)(F)F)cc2c(=O)[nH]ncc21)N1CCN(c2ncc(C(F)(F)F)cn2)CC1` [Compound 60, 1-(2-(3-oxo-3-(4-(5-(trifluoromethyl)pyrimidin-2-yl)piperazin-1-yl)propoxy)ethyl)-2-(trifluoromethyl)-1,5-dihydro-4H-pyrrolo[2,3-d]pyridazin-4-one], at most 100 nM. As to `O=C(CCNCCN1CCCc2c1cn[nH]c2=O)N1CCN(c2ncc(C(F)(F)F)cn2)CC1` [Compound 61], the IC50 lay in the range of 100 to 1000 nM. Under `CC(COCCC(=O)N1CCN(c2ccc(C#N)cn2)CC1)N1CCCc2c1cn[nH]c2=O` (centres unmarked) [Compound 62] stands 100 to 1000 nM; under `CC(COCCC(=O)N1CCN(c2ncc(C(F)(F)F)cn2)CC1)N1CCCc2c1cn[nH]c2=O` (centres unmarked) [Compound 63], at most 100 nM; under `N#Cc1ccc(N2CCN(C(=O)c3cccc(Cc4cccc5c4C(=O)NC5=O)c3)CC2)nc1` [Compound 66], 100 to 1000 nM. Under `N#Cc1ccc(N2CCN(C(=O)CCOCCc3cccc4c(=O)[nH]ncc34)CC2)nc1` [Compound 67] stands at most 100 nM; under `N#Cc1ccc(N2CCN(C(=O)CCOCCc3cc(C(F)(F)F)cc4c(=O)[nH]ncc34)CC2)nc1` [Compound 68], 100 to 1000 nM; under `O=C(CCOCCc1cc(C(F)(F)F)cc2c(=O)[nH]ncc12)N1CCN(c2ncc(C(F)(F)F)cn2)CC1` [Compound 69], 100 to 1000 nM.

For the molecule `CC(COCCC(=O)N1CCN(c2ccc(C#N)cn2)CC1)c1cccc2c(=O)[nH]ncc12` (centres unmarked) [Compound 70], the concentration for half-maximal inhibition (IC50) was in the range of 1000 to 10000 nM. On to `Cc1cn(CCOCCC(=O)N2CCN(c3ncc(C(F)(F)F)cn3)CC2)c2cn[nH]c(=O)c12` [Compound 74, 3-methyl-1-(2-(3-oxo-3-(4-(5-(trifluoromethyl)pyrimidin-2-yl)piperazin-1-yl)propoxy)ethyl)-1,5-dihydro-4H-pyrrolo[2,3-d]pyridazin-4-one], for which the half-maximal inhibitory concentration (IC50) is at most 100 nM.

With `CC(COCCC(=O)N1CCN(c2ncc(C(F)(F)F)cn2)CC1)n1ccc2c(=O)[nH]ncc21` (centres unmarked) [Compound 75], the IC50 was at most 100 nM. On to `CC(COCCC(=O)N1CCN(c2ncc(C(F)(F)F)cn2)CC1)n1ccc2c(=O)[nH]ncc21` (centres unmarked) [Compound 76], for which the IC50 was in the range of 100 to 1000 nM. Under `Cc1cc2c(=O)[nH]ncc2n1CCOCCC(=O)N1CCN(c2ncc(C(F)(F)F)cn2)CC1` [Compound 77] stands at most 100 nM. As for `N#Cc1ccc(N2CCN(C(=O)CCOCCn3c(C(F)(F)F)cc4c(=O)[nH]ncc43)CC2)nc1` [Compound 78], the IC50 lay in the range of 100 to 1000 nM. Under `N#Cc1ccc(N2CCN(C(=O)CCOCCc3cc(Cl)cc4c(=O)[nH]ncc34)CC2)nc1` [Compound 79] stands at most 100 nM; under `O=C(CCOCCc1cc(Cl)cc2c(=O)[nH]ncc12)N1CCN(c2ncc(C(F)(F)F)cn2)CC1` [Compound 80, 7-chloro-5-(2-(3-oxo-3-(4-(5-(trifluoromethyl)pyrimidin-2-yl)piperazin-1-yl)propoxy)ethyl)phthalazin-1(2H)-one], at most 100 nM; under `N#Cc1ccc(N2CCN(C(=O)CCOCCc3cc(F)cc4c(=O)[nH]ncc34)CC2)nc1` [Compound 81], at most 100 nM.

The values above are taken from patent US20240217968A1, “PHARMACEUTICAL COMPOUND” (DUKE STREET BIO LIMITED, priority 2021, published 2024).
